Data from US8895571B2, “Isoindolinone and pyrrolopyridinone derivatives as Akt inhibitors” (Incyte Corporation, priority 2011, dated 2014).

Columns and labels:
Full length PKA = molecular target: T1, Full length PKA (Homo sapiens, UniProt P17612); assay: PKA in vitro enzymatic assay (HTRF); type: biochemical; settings: 0.035 nM enzyme solution, substrate solution with 5 mM ATP, 25° C. 1 hr
T1 construct: Full length PKA (cat #P2912); purchased Invitrogen P2912
How it was run: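 Reaction buffer was 50 mM HEPES pH 7.8, 10 mM MgCl2, 5 mM DTT and 0.005% Tween20. Enzyme solution was 0.035 nM, and substrate solution was 0.1 μM fluorescein-CREBtide with 5 mM ATP. After 1 h at 25°C, EDTA plus Tb anti-pS133 antibody was added, TR-FRET was read, and IC50 was fitted from 11-point, 3-fold % inhibition curves.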

[1] = test system: LNCaP cells (human prostate tumor cell line); assay: Akt LNCaP proliferation assay (MTS); type: cell-based; settings: 48 hours
How it was run: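 Cells plated at 10,000/well in RPMI with 2% FBS overnight at 37° C., 5% CO2, then exposed to compound at 1000 nM to 0.5 nM (3-fold dilutions) for 48 hours. Viable cells measured by MTS colorimetric read-out after 2 hours; IC50 taken as concentration giving 50% inhibition of total proliferation.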

Full length Akt2 = molecular target: T2, Full length Akt2 (Homo sapiens, UniProt P31751); assay: In vitro Akt kinase enzymatic assay (HTRF), Akt2; type: biochemical; settings: 0.6 nM Akt2, substrate solution with 5 mM ATP, 25° C. 1 hr
T2 construct: Full length Akt1 (cat #P2999), Akt2 (cat #PV3184); purchased PerkinElmer PV3184
T2 sequence (P31751 whole entry): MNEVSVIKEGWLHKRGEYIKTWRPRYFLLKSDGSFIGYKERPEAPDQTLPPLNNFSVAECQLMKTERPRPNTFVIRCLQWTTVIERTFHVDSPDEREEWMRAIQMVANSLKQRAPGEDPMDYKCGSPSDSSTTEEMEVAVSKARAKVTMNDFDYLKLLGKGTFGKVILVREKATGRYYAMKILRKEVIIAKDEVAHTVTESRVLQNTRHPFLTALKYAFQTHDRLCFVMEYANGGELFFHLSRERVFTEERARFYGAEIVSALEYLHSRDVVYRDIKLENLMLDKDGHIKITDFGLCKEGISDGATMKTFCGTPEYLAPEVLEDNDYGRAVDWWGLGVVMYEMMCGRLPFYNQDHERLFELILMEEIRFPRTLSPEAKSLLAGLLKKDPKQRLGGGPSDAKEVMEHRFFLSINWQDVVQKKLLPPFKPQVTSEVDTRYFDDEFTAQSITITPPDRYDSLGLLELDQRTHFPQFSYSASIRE
How it was run: (§1)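 Full-length enzyme (0.4 nM Akt1 or 0.6 nM Akt2/Akt3 in the enzyme solution) was combined with a substrate solution of 0.1 μM ULight-Crosstide plus 5 mM ATP in pH 7.8 HEPES/MgCl2/DTT/Tween20 buffer and reacted 1 hr at 25° C. The EDTA stop contained Eu anti-phospho-Crosstide; IC50 was fitted from 11-point HTRF inhibition curves.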

Full length Akt3 = molecular target: T3, Full length Akt3 (Homo sapiens, UniProt Q9Y243); assay: In vitro Akt kinase enzymatic assay (HTRF), Akt3; type: biochemical; settings: 0.6 nM Akt3, substrate solution with 5 mM ATP, 25° C. 1 hr
T3 construct: Full length Akt1 (cat #P2999), Akt2 (cat #PV3184), Akt3 (cat #PV3185); purchased PerkinElmer PV3185
T3 sequence (Q9Y243 whole entry): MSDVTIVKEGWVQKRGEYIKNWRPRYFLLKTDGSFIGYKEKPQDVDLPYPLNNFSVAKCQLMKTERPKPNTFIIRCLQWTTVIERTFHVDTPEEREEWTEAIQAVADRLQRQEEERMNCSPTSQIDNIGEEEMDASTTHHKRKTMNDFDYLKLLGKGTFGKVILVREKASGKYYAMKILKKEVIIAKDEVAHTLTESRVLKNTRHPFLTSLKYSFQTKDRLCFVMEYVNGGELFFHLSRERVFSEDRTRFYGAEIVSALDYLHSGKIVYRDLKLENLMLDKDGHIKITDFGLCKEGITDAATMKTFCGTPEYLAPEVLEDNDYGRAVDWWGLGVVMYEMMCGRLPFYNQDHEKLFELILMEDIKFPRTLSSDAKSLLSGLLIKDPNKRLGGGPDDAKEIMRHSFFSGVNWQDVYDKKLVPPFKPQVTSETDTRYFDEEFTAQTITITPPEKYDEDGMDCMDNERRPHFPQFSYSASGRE
How it was run: as §1

Full length Akt1 = molecular target: T4, Full length Akt1 (Homo sapiens, UniProt P31749); assay: In vitro Akt kinase enzymatic assay (HTRF), Akt1; type: biochemical; settings: 0.4 nM Akt1, substrate solution with 5 mM ATP, 25° C. 1 hr
T4 construct: Full length Akt1 (cat #P2999); purchased PerkinElmer P2999
T4 sequence (P31749 whole entry): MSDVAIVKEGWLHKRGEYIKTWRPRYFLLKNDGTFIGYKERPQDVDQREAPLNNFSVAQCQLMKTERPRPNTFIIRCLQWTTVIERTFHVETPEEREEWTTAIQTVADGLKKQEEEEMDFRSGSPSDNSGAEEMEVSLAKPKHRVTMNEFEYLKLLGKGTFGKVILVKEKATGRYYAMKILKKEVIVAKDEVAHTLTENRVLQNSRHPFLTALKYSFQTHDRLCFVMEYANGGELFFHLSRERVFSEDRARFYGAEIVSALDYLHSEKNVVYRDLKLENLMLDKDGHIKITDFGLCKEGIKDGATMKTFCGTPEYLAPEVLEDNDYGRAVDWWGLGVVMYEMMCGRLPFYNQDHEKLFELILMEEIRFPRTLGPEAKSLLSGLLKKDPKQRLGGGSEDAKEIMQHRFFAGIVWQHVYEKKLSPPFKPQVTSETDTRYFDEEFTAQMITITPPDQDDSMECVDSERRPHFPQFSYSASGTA
How it was run: as §1

[2] = 2% fetal bovine serum, class symbols
[3] = given as a bound, final concentrations 1000 nM to 0.5 nM

| IC50 (Full length PKA) [nM] | IC50 [1, 2] [nM] | IC50 (Full length Akt2) [nM] | IC50 (Full length Akt3) [nM] | IC50 (Full length Akt1) [nM] | IC50 [1, 3] [nM] | SMILES |
| --- | --- | --- | --- | --- | --- | --- |
| 500 to 5000 | < 500 | < 500 | < 500 | < 500 | – | CC(C)OCc1cnn(C)c1-c1ccc2c(c1)CN([C@H](CN)Cc1cc(F)cc(F)c1)C2=O [Example 45, 2-[(1S)-2-amino-1-(3,5-difluorobenzyl)ethyl]-5-[4-(2-propoxymethyl)-1-methyl-1H-pyrazol-5-yl]isoindolin-1-one] |
| > 5000 | < 500 | < 500 | < 500 | < 500 | – | CCCOCc1cnn(C)c1-c1ccc2c(c1)CN([C@H](CN)Cc1cccc(F)c1)C2=O [Example 7, 2-[(1S)-2-amino-1-(3-fluorobenzyl)ethyl]-5-[4-(1-propoxymethyl)-1-methyl-1H-pyrazol-5-yl]isoindolin-1-one] |
| 500 to 5000 | < 500 | < 500 | < 500 | < 500 | – | C#Cc1cccc(C[C@@H](CN)N2Cc3cc(-c4c(Cl)cnn4C)ccc3C2=O)c1 [Example 89, 2-[(1S)-2-amino-1-(3-ethynylbenzyl)ethyl]-5-(4-chloro-1-methyl-1H-pyrazol-5-yl)isoindolin-1-one] |
| 500 to 5000 | < 500 | < 500 | < 500 | < 500 | – | Cn1ncc(COCC2CC2)c1-c1ccc2c(c1)CN([C@H](CN)Cc1cc(F)cc(F)c1)C2=O [Example 48, 2-[(1S)-2-amino-1-(3,5-difluorobenzyl)ethyl]-5-[4-(cyclopropylmethoxymethyl)-1-methyl-1H-pyrazol-5-yl]isoindolin-1-one] |
| 500 to 5000 | < 500 | < 500 | < 500 | < 500 | – | Cn1ncc(Cl)c1-c1ccc2c(c1)CN([C@H](CN)Cc1cc(F)cc(F)c1)C2=O [Example 41, 2-[(1S)-2-amino-1-(3,5-difluorobenzyl)ethyl]-5-(4-chloro-1-methyl-1H-pyrazol-5-yl)isoindolin-1-one] |
| 500 to 5000 | < 500 | < 500 | 500 to 5000 | < 500 | – | Cn1nccc1-c1ccc2c(c1)CN([C@@H](CN)c1ccccc1)C2=O [Example 116, 2-[(1R)-2-amino-1-phenylethyl]-5-(1-methyl-1H-pyrazol-5-yl)isoindolin-1-one] |
| > 5000 | < 500 | < 500 | < 500 | < 500 | – | Cn1ncc(Br)c1-c1cnc2c(c1)CN([C@H](CN)Cc1cccc(F)c1)C2=O [Example 91, 6-[(1S)-2-amino-1-(3-fluorobenzyl)ethyl]-3-(4-bromo-1-methyl-1H-pyrazol-5-yl)-5,6-dihydro-7H-pyrrolo[3,4-b]pyridin-7-one] |
| 500 to 5000 | < 500 | < 500 | < 500 | < 500 | – | Cc1cnn(C)c1-c1ccc2c(c1)CN([C@H](CN)Cc1cc(F)cc(F)c1)C2=O [Example 42, 2-[(1S)-2-amino-1-(3,5-difluorobenzyl)ethyl]-5-(4-methyl-1-methyl-1H-pyrazol-5-yl)isoindolin-1-one] |
| 500 to 5000 | < 500 | < 500 | < 500 | < 500 | – | Cn1ncc(Cl)c1-c1ccc2c(c1)CN([C@H](CN)CC1CCCCC1)C2=O [Example 132, 2-[(1S)-2-amino-1-(cyclohexylmethyl)ethyl]-5-(4-chloro-1-methyl-1H-pyrazol-5-yl)isoindolin-1-one] |
| > 5000 | < 500 | < 500 | < 500 | < 500 | – | CCOCc1cnn(C)c1-c1ccc2c(c1)CN([C@H](CN)Cc1cccc(F)c1)C2=O [Example 5, 2-[(1S)-2-amino-1-(3-fluorobenzyl)ethyl]-5-(4-ethoxymethyl-1-methyl-1H-pyrazol-5-yl)isoindolin-1-one] |
| > 5000 | < 500 | < 500 | < 500 | < 500 | – | Cn1ncc(COCC2CC2)c1-c1ccc2c(c1)CN([C@H](CN)Cc1cccc(F)c1)C2=O [Example 9, 2-[(1S)-2-amino-1-(3-fluorobenzyl)ethyl]-5-(4-cyclopropylmethoxymethyl-1-methyl-1H-pyrazol-5-yl)isoindolin-1-one] |
| 500 to 5000 | < 500 | < 500 | < 500 | < 500 | – | Cn1ncc(Br)c1-c1ccc2c(c1)CN([C@H](CN)Cc1cc(F)cc(F)c1)C2=O [Example 52, 2-[(1S)-2-amino-1-(3,5-difluorobenzyl)ethyl]-5-(4-bromo-1-methyl-1H-pyrazol-5-yl)isoindolin-1-one] |
| > 5000 | < 500 | < 500 | 500 to 5000 | < 500 | – | Cn1nccc1-c1ccc2c(c1)CN([C@H](CN)Cc1cccnc1)C2=O [Example 78, 2-[(1S)-2-amino-1-(pyridin-3-ylmethyl)ethyl]-5-(1-methyl-1H-pyrazol-5-yl)isoindolin-1-one] |
| > 5000 | – | > 5000 | 500 to 5000 | 500 to 5000 | > 1000 | Cn1ncc(Cl)c1-c1ccc2c(c1)CN([C@H](CN)Cc1cccc(-c3cccnc3)c1)C2=O [Example 73, 2-[(1S)-2-amino-1-(3-pyridin-3-ylbenzyl)ethyl]-5-(4-chloro-1-methyl-1H-pyrazol-5-yl)isoindolin-1-one] |
| > 5000 | – | > 5000 | > 5000 | 500 to 5000 | > 1000 | Cn1nccc1-c1ccc2c(c1)CN([C@H](CN)Cc1cccc(-c3cccnc3)c1)C2=O [Example 86, 2-[(1S)-2-amino-1-(3-pyridin-3-ylbenzyl)ethyl]-5-(1-methyl-1H-pyrazol-5-yl)isoindolin-1-one] |
| > 5000 | – | > 5000 | > 5000 | 500 to 5000 | > 1000 | CC(C)Cn1nccc1-c1ccc2c(c1)CN([C@H](CN)Cc1cc(F)cc(F)c1)C2=O [Example 130, 2-[(1S)-2-amino-1-(3,5-difluorobenzyl)ethyl]-5-(1-isobutyl-1H-pyrazol-5-yl)isoindolin-1-one] |
| 500 to 5000 | < 500 | < 500 | < 500 | < 500 | – | Cn1ncc(C#N)c1-c1ccc2c(c1)CN([C@H](CN)Cc1cc(F)cc(F)c1)C2=O [Example 53, 2-[(1S)-2-amino-1-(3,5-difluorobenzyl)ethyl]-5-(4-cyano-1-methyl-1H-pyrazol-5-yl)isoindolin-1-one] |
| 500 to 5000 | < 500 | < 500 | < 500 | < 500 | – | Cn1ncc(Br)c1-c1cc2c(cn1)C(=O)N([C@H](CN)Cc1cc(F)cc(F)c1)C2 [Example 104, 2-[(1S)-2-amino-1-(3,5-difluoro-benzyl)ethyl]-6-(4-broro-1-methyl-1H-pyrazol-5-yl)-1,2-dihydro-3H-pyrrolo[3,4-c]pyridin-3-one] |
| 500 to 5000 | < 500 | < 500 | < 500 | < 500 | – | Cn1nccc1-c1ccc2c(c1)CN([C@H](CN)Cc1cccs1)C2=O [Example 80, 2-[(1S)-2-amino-1-(2-thienylmethyl)ethyl]-5-(1-methyl-1H-pyrazol-5-yl)isoindolin-1-one] |
| 500 to 5000 | < 500 | < 500 | < 500 | < 500 | – | Cn1ncc(Br)c1-c1ccc2c(c1)CN([C@H](CN)Cc1cccc(F)c1)C2=O [Example 12, 2-[(1S)-2-amino-1-(3-fluorobenzyl)ethyl]-5-(4-bromo-1-methyl-1H-pyrazol-5-yl)isoindolin-1-one] |
| 500 to 5000 | < 500 | < 500 | < 500 | < 500 | – | Cn1nccc1-c1cc2c(cn1)C(=O)N([C@H](CN)Cc1cc(F)cc(F)c1)C2 [Example 102, 2-[(1S)-2-amino-1-(3,5-difluoro-benzyl)ethyl]-6-(1-methyl-1H-pyrazol-5-yl)-1,2-dihydro-3H-pyrrolo[3,4-c]pyridin-3-one] |
| 500 to 5000 | < 500 | < 500 | < 500 | < 500 | – | Cn1ncc(Cl)c1-c1ccc2c(c1)CN([C@H](CN)Cc1ccccc1)C2=O [Example 56, 2-[(1S)-2-amino-1-benzyl-ethyl]-5-(4-chloro-1-methyl-1H-pyrazol-5-yl)isoindolin-1-one] |
